According to PubChem BioAssay AID256 (DTP/NCI, 2004):
“And” between values parts separate entries of the source, which are not always exact repeats. Equal values may be shown once. Inconclusive results and toxic doses are left out. The calls were made as follows: active = survival T/C of 150% or more; inactive = T/C below 125% in these data. Residues, ends and D or L forms follow the SMILES beside them. *: point of attachment. Cbz = O=C(OCc1ccccc1)*

Test system: CD2F1 mice, L1210 leukemia ip, survival T/C
Experiment: NCI In Vivo Anticancer Drug Screen. Data for tumor model L1210 Leukemia (intraperitoneal) in CD2F1 (CDF1) mice
Settings: higher = longer survival
How it was run: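 Ratio T/C, where T is the treated-group value and C the vehicle-dosed control value, from mice implanted with a transplantable tumor.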

[1] = endpoint: mean survival time, dose: 100.0 mg/kg/injection, schedule: Q04DX003 (ip), vehicle: saline with Tween-80
[2] = endpoint: mean survival time, dose: 200.0 mg/kg/injection, schedule: Q04DX003 (ip), vehicle: saline with Tween-80
[3] = endpoint: mean survival time, dose: 400.0 mg/kg/injection, schedule: Q04DX003 (ip), vehicle: saline with Tween-80
[4] = endpoint: mean survival time, dose: 100.0 mg/kg/injection, schedule: Q01DX001 (ip), vehicle: saline with Tween-80
[5] = endpoint: mean survival time, dose: 200.0 mg/kg/injection, schedule: Q01DX001 (ip), vehicle: saline with Tween-80
[6] = endpoint: mean survival time, dose: 400.0 mg/kg/injection, schedule: Q01DX001 (ip), vehicle: saline with Tween-80
[7] = endpoint: mean survival time, dose: 25.0 mg/kg/injection, schedule: Q04DX003 (ip), vehicle: saline
[8] = endpoint: mean survival time, dose: 50.0 mg/kg/injection, schedule: Q04DX003 (ip), vehicle: saline
[9] = endpoint: mean survival time, dose: 100.0 mg/kg/injection, schedule: Q01DX009 (ip), vehicle: saline with Tween-80
[10] = endpoint: mean survival time, dose: 400.0 mg/kg/injection, schedule: Q01DX009 (ip), vehicle: saline with Tween-80
[11] = endpoint: mean survival time, dose: 200.0 mg/kg/injection, schedule: Q01DX009 (ip), vehicle: saline with Tween-80
[12] = endpoint: mean survival time, dose: 25.0 mg/kg/injection, schedule: Q01DX009 (ip), vehicle: saline with Tween-80
[13] = endpoint: mean survival time, dose: 50.0 mg/kg/injection, schedule: Q01DX009 (ip), vehicle: saline with Tween-80

Measured: T/C

Brc1cscc1-c1ccccc1
inactive: [1] 93 % of control | [2] 102 % of control | [3] 98 % of control

O=C1c2ccccc2C(=O)N1CCCCN1C(=O)c2ccccc2C1=O
inactive: [4] 90 % of control | [5] 87 % of control | [6] 90 % of control

CCC[CH2][Sn]1([CH2]CCC)[O]C2C(CO)OC(n3c(Br)c(C#N)c4c(N)ncnc43)C2[O]1 (stereo not given)
inactive: endpoint: mean survival time, dose: 1.56 mg/kg/injection, schedule: Q01DX005 (ip), vehicle: distilled water + Tween-80 93 % of control | endpoint: mean survival time, dose: 3.13 mg/kg/injection, schedule: Q01DX005 (ip), vehicle: distilled water + Tween-80 98 % of control

COc1cc2cc3c4cc5c(cc4cc[n+]3c(C)c2cc1OC)OCO5 (tested in a mixture with another compound)
inactive: [7] 122 % of control | [8] 122 % of control | [1] 92 % of control | endpoint: mean survival time, dose: 100.0 mg/kg/injection, schedule: Q04DX003 (ip), vehicle: saline 118 % of control

CCOC(=O)c1cn[nH]c1/N=N/N(C)C
inactive: endpoint: mean survival time, dose: 100.0 mg/kg/injection, schedule: Q01DX001 (ip), vehicle: carboxymethylcellulose (CMC) 115 % of control

CCOC(=O)C(C(=O)OCC)c1cc(NC(=O)c2ccccc2)ccc1NC(=O)c1ccccc1
inactive: [9] 87 % of control | [10] 93 % of control

NC(=O)c1cnn2ccn(C3OC(CO)C(O)C3O)c12 (stereo not given)
inactive: endpoint: median survival time, dose: 9.63 mg/kg/injection, schedule: Q01DX005 (ip), vehicle: water 102 % of control | endpoint: median survival time, dose: 19.25 mg/kg/injection, schedule: Q01DX005 (ip), vehicle: water 94 % of control | endpoint: median survival time, dose: 38.5 mg/kg/injection, schedule: Q01DX005 (ip), vehicle: water 104 % of control | endpoint: median survival time, dose: 77.0 mg/kg/injection, schedule: Q01DX005 (ip), vehicle: water 100 % of control | endpoint: median survival time, dose: 154.0 mg/kg/injection, schedule: Q01DX005 (ip), vehicle: water 93 % of control

O=C(CC(O)(C(F)(F)F)C(F)(F)F)c1ccc(Br)cc1
inactive: endpoint: mean survival time, dose: 100.0 mg/kg/injection, schedule: Q01DX009 (ip), vehicle: other 106 % of control | endpoint: mean survival time, dose: 200.0 mg/kg/injection, schedule: Q01DX009 (ip), vehicle: other 100 % of control | endpoint: mean survival time, dose: 400.0 mg/kg/injection, schedule: Q01DX009 (ip), vehicle: other 95 % of control

CC(=O)/C=C(\C)OC1CCCCC1
inactive: endpoint: mean survival time, dose: 100.0 mg/kg/injection, schedule: Q01DX009 (ip), vehicle: saline 98 % of control | endpoint: mean survival time, dose: 200.0 mg/kg/injection, schedule: Q01DX009 (ip), vehicle: saline 93 % of control

CCOC(=O)C1CC(c2ccccc2)=NN1c1ccccc1 (stereo not given)
inactive: endpoint: mean survival time, dose: 12.5 mg/kg/injection, schedule: Q01DX009 (ip), vehicle: Klucel (hydroxypropylcellulose) (HPC) 95 % of control | endpoint: mean survival time, dose: 25.0 mg/kg/injection, schedule: Q01DX009 (ip), vehicle: Klucel (hydroxypropylcellulose) (HPC) 101 % of control | endpoint: mean survival time, dose: 50.0 mg/kg/injection, schedule: Q01DX009 (ip), vehicle: Klucel (hydroxypropylcellulose) (HPC) 102 % of control | endpoint: mean survival time, dose: 100.0 mg/kg/injection, schedule: Q01DX009 (ip), vehicle: Klucel (hydroxypropylcellulose) (HPC) 101 % of control | endpoint: mean survival time, dose: 200.0 mg/kg/injection, schedule: Q01DX009 (ip), vehicle: Klucel (hydroxypropylcellulose) (HPC) 95 % of control | endpoint: mean survival time, dose: 400.0 mg/kg/injection, schedule: Q01DX009 (ip), vehicle: Klucel (hydroxypropylcellulose) (HPC) 98 % of control

Nc1nc2c(ncn2-c2ccc(NC(=O)c3cccc(S(=O)(=O)F)c3)cc2)c(=O)[nH]1
inactive: endpoint: mean survival time, dose: 37.5 mg/kg/injection, schedule: Q04DX002 (ip), vehicle: saline with Tween-80 90 % of control | endpoint: mean survival time, dose: 75.0 mg/kg/injection, schedule: Q04DX002 (ip), vehicle: saline with Tween-80 111 % of control | endpoint: mean survival time, dose: 150.0 mg/kg/injection, schedule: Q04DX002 (ip), vehicle: saline with Tween-80 94 % of control

Brc1sc(Br)c(Br)c1Br
inactive: [4] 109 % of control | [9] 100 % of control | [5] 95 % of control | [11] 101 % of control | [6] 102 % of control | [10] 101 % of control

CSc1nc(N)cc(=O)[nH]1
inactive: endpoint: mean survival time, dose: 50.0 mg/kg/injection, schedule: Q01DX001 (ip), vehicle: Klucel (hydroxypropylcellulose) (HPC) 98 % of control | endpoint: mean survival time, dose: 100.0 mg/kg/injection, schedule: Q01DX001 (ip), vehicle: Klucel (hydroxypropylcellulose) (HPC) 96 % of control | endpoint: mean survival time, dose: 200.0 mg/kg/injection, schedule: Q01DX001 (ip), vehicle: Klucel (hydroxypropylcellulose) (HPC) 86 % of control

Cc1c(N)nc(C(CC(N)=O)NCC(N)C(N)=O)nc1C(=O)NC(C(=O)NC(C)C(O)C(C)C(=O)NC(C(=O)NCCc1nc(-c2nc(C(=O)NCCCNC(C)c3ccccc3)cs2)cs1)C(C)O)C(OC1OC(CO)C(O)C(O)C1OC1OC(CO)C(O)C(OC(N)=O)C1O)c1cnc[nH]1 (stereo not given)
inactive: endpoint: mean survival time, dose: 0.25 mg/kg/injection, schedule: Q01DX009 (ip), vehicle: water 100 % of control | endpoint: mean survival time, dose: 0.5 mg/kg/injection, schedule: Q01DX009 (ip), vehicle: water 103 % of control and 105 % of control | endpoint: mean survival time, dose: 1.0 mg/kg/injection, schedule: Q01DX009 (ip), vehicle: saline 103 % of control | endpoint: mean survival time, dose: 1.0 mg/kg/injection, schedule: Q01DX009 (ip), vehicle: water 123 % of control and 98 % of control | endpoint: mean survival time, dose: 2.0 mg/kg/injection, schedule: Q01DX009 (ip), vehicle: saline 106 % of control | endpoint: mean survival time, dose: 2.0 mg/kg/injection, schedule: Q01DX009 (ip), vehicle: water 104 % of control and 109 % of control | endpoint: mean survival time, dose: 4.0 mg/kg/injection, schedule: Q01DX009 (ip), vehicle: saline 104 % of control | endpoint: mean survival time, dose: 4.0 mg/kg/injection, schedule: Q01DX009 (ip), vehicle: water 113 % of control and 102 % of control | endpoint: mean survival time, dose: 8.0 mg/kg/injection, schedule: Q01DX009 (ip), vehicle: saline 106 % of control | endpoint: mean survival time, dose: 8.0 mg/kg/injection, schedule: Q01DX009 (ip), vehicle: water 109 % of control | endpoint: mean survival time, dose: 16.0 mg/kg/injection, schedule: Q01DX009 (ip), vehicle: saline 101 % of control | endpoint: mean survival time, dose: 16.0 mg/kg/injection, schedule: Q01DX009 (ip), vehicle: water 113 % of control | endpoint: mean survival time, dose: 32.0 mg/kg/injection, schedule: Q01DX009 (ip), vehicle: saline 89 % of control

COc1cc(C(=O)NCCCCCC(=O)O)cc(OC)c1OC
inactive: endpoint: mean survival time, dose: 100.0 mg/kg/injection, schedule: Q04DX002 (ip), vehicle: saline with Tween-80 91 % of control | endpoint: mean survival time, dose: 200.0 mg/kg/injection, schedule: Q04DX002 (ip), vehicle: saline with Tween-80 95 % of control | endpoint: mean survival time, dose: 400.0 mg/kg/injection, schedule: Q04DX002 (ip), vehicle: saline with Tween-80 88 % of control

COC(=O)C1OC(C)(C)OC1C(=O)OC (stereo not given)
inactive: endpoint: mean survival time, dose: 1.56 mg/kg/injection, schedule: Q01DX001 (ip), vehicle: saline with Tween-80 103 % of control | endpoint: mean survival time, dose: 3.12 mg/kg/injection, schedule: Q01DX001 (ip), vehicle: saline with Tween-80 100 % of control | endpoint: mean survival time, dose: 6.25 mg/kg/injection, schedule: Q01DX001 (ip), vehicle: saline with Tween-80 95 % of control

O=C(Nc1ccc2c3c(cccc13)C=C2)c1ccccc1
inactive: [1] 96 % of control | [2] 93 % of control | [3] 93 % of control

CN(C)CCCc1c2ccccc2nc2ccc(Cl)cc12
inactive: endpoint: mean survival time, dose: 12.0 mg/kg/injection, schedule: Q04DX003 (ip), vehicle: saline 102 % of control | [7] 94 % of control | [8] 98 % of control

CCOC(=O)c1ccc(Nc2nnc(-c3c(OC)cc(OC)cc3OC)s2)cc1
inactive: [12] 88 % of control | [13] 88 % of control | [9] 89 % of control | [11] 88 % of control | [10] 88 % of control

Cc1cc(C)c(C(=O)CC(C#N)c2ccccc2)c(C)c1 (stereo not given)
inactive: [1] 95 % of control | [2] 98 % of control | [3] 91 % of control

NC(=O)CNC(=O)CNC(=O)CNC(=O)OCc1ccccc1 (Cbz-Gly-Gly-Gly-NH2)
inactive: endpoint: mean survival time, dose: 12.5 mg/kg/injection, schedule: Q01DX009 (ip), vehicle: saline with Tween-80 105 % of control | [12] 102 % of control | [13] 95 % of control

Cc1cc(NC(=O)NCCOc2ccc(N3C(N)=NC(N)=NC3(C)C)cc2Cl)ccc1S(=O)(=O)F
inactive: endpoint: mean survival time, dose: 12.5 mg/kg/injection, schedule: Q04DX003 (ip), vehicle: saline with Tween-80 107 % of control | endpoint: mean survival time, dose: 25.0 mg/kg/injection, schedule: Q04DX003 (ip), vehicle: saline with Tween-80 102 % of control | endpoint: mean survival time, dose: 50.0 mg/kg/injection, schedule: Q04DX003 (ip), vehicle: saline with Tween-80 91 % of control

C[Si](C)(C)c1c(F)c(F)c(F)c(F)c1F
inactive: [1] 96 % of control | [2] 94 % of control | [3] 88 % of control
